Laboratory results: PubChem BioAssay AID1919005 (Molecular Pharmacology Branch, DTP, NCI, 2023)
Several values for one entry are separate records, joined by “and”; a condition that tells them apart may be missing. Equal entries are not always repeated.

System: 855422-203-R-J1-PDC complex spheroid growth
Assay: Anticancer human tumor 855422-203-R-J1-PDC patient-derived bladder carcinoma cell line growth inhibition [AhR]
Details: for viability, T/C: stronger effect = lower value
Summary of the method: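 Agents were dosed in half-log steps down from roughly clinical Cmax, or from 10 microM where Cmax was unknown, alone and with AhR antagonists. Read-out: percent test/control growth of tumor spheroids containing HUVEC and MSC stromal cells.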

[1] = curve of first compound, second compound 0.1 µM
[2] = curve of first compound, second compound 0.316 µM
[3] = curve of first compound, second compound 1 µM
[4] = curve of first compound, second compound 3.16 µM
[5] = curve of first compound, second compound 10 µM
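Also: spheroids exposed to agents for seven days before readout.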
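For viability, T/C in this document: percent of DMSO vehicle control luminescence viability.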

Question: How did the IC50 [1] turn out when `O=C(C=Cn1cnc(-c2cc(C(F)(F)F)cc(C(F)(F)F)c2)n1)NNc1cnccn1` + Cc1ccccc1N=Nc1ccc(NC(=O)c2ccnn2C)c(C)c1 was run?
Answer: > 3 µM

Question: And the IC50 [2]?
Answer: > 3 µM

Question: And the IC50 [3]?
Answer: > 3 µM

Question: What about the IC50 [4] of the same compound?
Answer: 0.706 µM

Question: And the IC50 [5]?
Answer: 0.726 µM

Question: What about the viability, T/C (second compound 0.1 µM, first compound 0.00949 µM) of the same compound?
Answer: 108%

Question: And the viability, T/C (second compound 0.1 µM, first compound 0.03 µM)?
Answer: 113%

Question: What about the viability, T/C (second compound 0.1 µM, first compound 0.0949 µM) of the same compound?
Answer: 143%

Question: What about the viability, T/C (second compound 0.1 µM, first compound 0.3 µM) of the same compound?
Answer: 93.1%

Question: What about the viability, T/C (second compound 0.1 µM, first compound 0.949 µM) of the same compound?
Answer: 53.9%

Question: And the viability, T/C (second compound 0.1 µM, first compound 3 µM)?
Answer: 50.1%

Question: What about the viability, T/C (second compound 0.316 µM, first compound 0.00949 µM) of the same compound?
Answer: 109%

Question: What about the viability, T/C (second compound 0.316 µM, first compound 0.03 µM) of the same compound?
Answer: 118%

Question: And the viability, T/C (second compound 0.316 µM, first compound 0.0949 µM)?
Answer: 151%

Question: What about the viability, T/C (second compound 0.316 µM, first compound 0.3 µM) of the same compound?
Answer: 83.7%

Question: And the viability, T/C (second compound 0.316 µM, first compound 0.949 µM)?
Answer: 57.6%

Question: What about the viability, T/C (second compound 0.316 µM, first compound 3 µM) of the same compound?
Answer: 48%

Question: And the viability, T/C (second compound 1 µM, first compound 0.00949 µM)?
Answer: 109%

Question: And the viability, T/C (second compound 1 µM, first compound 0.03 µM)?
Answer: 136%

Question: And the viability, T/C (second compound 1 µM, first compound 0.0949 µM)?
Answer: 179%

Question: What about the viability, T/C (second compound 1 µM, first compound 0.3 µM) of the same compound?
Answer: 78.5%

Question: And the viability, T/C (second compound 1 µM, first compound 0.949 µM)?
Answer: 54.2%

Question: What about the viability, T/C (second compound 1 µM, first compound 3 µM) of the same compound?
Answer: 48%

Question: What about the viability, T/C (second compound 3.16 µM, first compound 0.00949 µM) of the same compound?
Answer: 111%

Question: What about the viability, T/C (second compound 3.16 µM, first compound 0.03 µM) of the same compound?
Answer: 107%

Question: What about the viability, T/C (second compound 3.16 µM, first compound 0.0949 µM) of the same compound?
Answer: 154%

Question: What about the viability, T/C (second compound 3.16 µM, first compound 0.3 µM) of the same compound?
Answer: 69.8%

Question: What about the viability, T/C (second compound 3.16 µM, first compound 0.949 µM) of the same compound?
Answer: 48.5%

Question: And the viability, T/C (second compound 3.16 µM, first compound 3 µM)?
Answer: 37.8%

Question: What about the viability, T/C (second compound 10 µM, first compound 0.00949 µM) of the same compound?
Answer: 85.8%

Question: What about the viability, T/C (second compound 10 µM, first compound 0.03 µM) of the same compound?
Answer: 101%

Question: And the viability, T/C (second compound 10 µM, first compound 0.0949 µM)?
Answer: 112%

Question: And the viability, T/C (second compound 10 µM, first compound 0.3 µM)?
Answer: 58.2%

Question: What about the viability, T/C (second compound 10 µM, first compound 0.949 µM) of the same compound?
Answer: 49.8%

Question: What about the viability, T/C (second compound 10 µM, first compound 3 µM) of the same compound?
Answer: 45.4%

Question: With `CC(C)c1c(-c2ccccc2)nc2c(C#N)c[nH]n2c1=O` as the compound, how does the viability, T/C (compound 0.0316 µM) read?
Answer: 105% and 98.6% and 111%

Question: And the viability, T/C (compound 0.1 µM)?
Answer: 97.8% and 96% and 112%

Question: And the viability, T/C (compound 0.316 µM)?
Answer: 111% and 97% and 96.5%

Question: And the viability, T/C (compound 1 µM)?
Answer: 99.3% and 89.9% and 105%

Question: And the viability, T/C (compound 3.16 µM)?
Answer: 105% and 98.1% and 98.8%

Question: What about the viability, T/C (compound 10 µM) of the same compound?
Answer: 77.9% and 92% and 96.4%

Question: What about the IC50 (curve of compound) of the same compound?
Answer: > 10 µM

Question: `Nc1ccccc1NC(=O)c1ccc(CNC(=O)OCc2cccnc2)cc1` + CC(CO)NC(=O)c1cc(-c2ccc(Cl)cc2)nn(-c2cnn(C)c2)c1=O was tested. Which IC50 [1] did it give?
Answer: 3.89 µM

Question: And the IC50 [2]?
Answer: 4.06 µM

Question: What about the IC50 [3] of the same compound?
Answer: 4.13 µM

Question: What about the IC50 [4] of the same compound?
Answer: 2.87 µM

Question: And the IC50 [5]?
Answer: 3.1 µM

Question: What about the viability, T/C (second compound 0.1 µM, first compound 0.0316 µM) of the same compound?
Answer: 94.2%

Question: And the viability, T/C (second compound 0.1 µM, first compound 0.1 µM)?
Answer: 91.2%

Question: And the viability, T/C (second compound 0.1 µM, first compound 0.316 µM)?
Answer: 92%

Question: And the viability, T/C (second compound 0.1 µM, first compound 1 µM)?
Answer: 89.5%

Question: And the viability, T/C (second compound 0.1 µM, first compound 3.16 µM)?
Answer: 57.9%

Question: And the viability, T/C (second compound 0.1 µM, first compound 10 µM)?
Answer: 14.4%

Question: What about the viability, T/C (second compound 0.316 µM, first compound 0.0316 µM) of the same compound?
Answer: 92.2%

Question: What about the viability, T/C (second compound 0.316 µM, first compound 0.1 µM) of the same compound?
Answer: 91.6%

Question: What about the viability, T/C (second compound 0.316 µM, first compound 0.316 µM) of the same compound?
Answer: 90.1%

Question: What about the viability, T/C (second compound 0.316 µM, first compound 1 µM) of the same compound?
Answer: 89.2%

Question: And the viability, T/C (second compound 0.316 µM, first compound 3.16 µM)?
Answer: 60.7%

Question: What about the viability, T/C (second compound 0.316 µM, first compound 10 µM) of the same compound?
Answer: 11.2%

Question: And the viability, T/C (second compound 1 µM, first compound 0.0316 µM)?
Answer: 95.2%

Question: What about the viability, T/C (second compound 1 µM, first compound 0.1 µM) of the same compound?
Answer: 91.8%

Question: What about the viability, T/C (second compound 1 µM, first compound 0.316 µM) of the same compound?
Answer: 91.7%

Question: What about the viability, T/C (second compound 1 µM, first compound 1 µM) of the same compound?
Answer: 88.7%

Question: And the viability, T/C (second compound 1 µM, first compound 3.16 µM)?
Answer: 61.5%

Question: And the viability, T/C (second compound 1 µM, first compound 10 µM)?
Answer: 11.7%

Question: And the viability, T/C (second compound 3.16 µM, first compound 0.0316 µM)?
Answer: 94%

Question: And the viability, T/C (second compound 3.16 µM, first compound 0.1 µM)?
Answer: 94.5%

Question: And the viability, T/C (second compound 3.16 µM, first compound 0.316 µM)?
Answer: 86.6%

Question: And the viability, T/C (second compound 3.16 µM, first compound 1 µM)?
Answer: 77.2%

Question: What about the viability, T/C (second compound 3.16 µM, first compound 3.16 µM) of the same compound?
Answer: 47.2%

Question: What about the viability, T/C (second compound 3.16 µM, first compound 10 µM) of the same compound?
Answer: 9.66%

Question: And the viability, T/C (second compound 10 µM, first compound 0.0316 µM)?
Answer: 88.9%

Question: And the viability, T/C (second compound 10 µM, first compound 0.1 µM)?
Answer: 92.6%

Question: And the viability, T/C (second compound 10 µM, first compound 0.316 µM)?
Answer: 88.5%

Question: What about the viability, T/C (second compound 10 µM, first compound 1 µM) of the same compound?
Answer: 74.2%

Question: And the viability, T/C (second compound 10 µM, first compound 3.16 µM)?
Answer: 50.2%

Question: What about the viability, T/C (second compound 10 µM, first compound 10 µM) of the same compound?
Answer: 8.41%

Question: How did the viability, T/C (compound 0.00949 µM) turn out when `CCN(c1cc(-c2ccc(CN3CCOCC3)cc2)cc(C(=O)NCc2c(C)cc(C)[nH]c2=O)c1C)C1CCOCC1` was run?
Answer: 105% (2×) and 109%

Question: And the viability, T/C (compound 0.03 µM)?
Answer: 100% and 102% and 108%

Question: What about the viability, T/C (compound 0.0949 µM) of the same compound?
Answer: 100% and 105% and 99.7%

Question: What about the viability, T/C (compound 0.3 µM) of the same compound?
Answer: 94.2% and 98.2% and 97.3%

Question: What about the viability, T/C (compound 0.949 µM) of the same compound?
Answer: 96.8% and 91.9% and 88.2%

Question: What about the viability, T/C (compound 3 µM) of the same compound?
Answer: 78.1% and 92.2% and 80.9%

Question: And the IC50 (curve of compound)?
Answer: > 3 µM
